Earlier results on 3 compounds are cited in paper PMC5117885 (Drug Design, Development and Therapy, 2016).

Structures are written as SMILES.

For series [1] the following is noted: phase 3 ACCELERATE trial.
Assay in series [2]: not given
This is another data set of the same source.

Turning to `Cc1cc(C)c2c(c1)[C@@H](N(Cc1cc(C(F)(F)F)cc(C(F)(F)F)c1)c1nnn(C)n1)CCCN2C[C@H]1CC[C@H](C(=O)O)CC1` [Evacetrapib], the Efficacy result in series [1] is given as “did not improve the efficacy”.
With `CCC(CC)CC1(C(=O)Nc2ccccc2SC(=O)C(C)C)CCCCC1` [Dalcetrapib], the “Effect on HDL-C levels” value is given as “increased HDL-C levels” and the “Reduction of cardiovascular events compared to placebo group” value is given as “did not demonstrate a significant reduction of cardiovascular events”.
For the compound `CCOC(=O)N1c2ccc(C(F)(F)F)cc2[C@@H](N(Cc2cc(C(F)(F)F)cc(C(F)(F)F)c2)C(=O)OC)C[C@H]1CC` [Torcetrapib], the “Effect on blood pressure and aldosterone” value in series [2] is on record as “Elevation of BP caused by torcetrapib was associated with a substantial increase of aldosterone”. Besides, the “Effect on HDL-C and LDL-C” value in series [2] (ILLUMINATE trial) is “HDL-C increase and LDL-C decrease”. For the same compound, the “Risk of death and cardiac events” value in series [2] (ILLUMINATE trial, patients receiving torcetrapib) was “significantly increased risk of death and cardiac events”.
